Source: US20230148599A1, “FUNGICIDAL MIXTURES CONTAINING PYRAZOLE DERIVATIVES” (FMC Corporation, priority 2020, published 2023)

Tests used:
Format in all cases: in vivo
Details in all cases: 50 ppm, 100 = 100% disease control, 0 = no control
Septoria tritici = experiment: Test A: wheat leaf blotch, preventive spray on wheat seedlings
Summary of the method: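 Preventive test: one day after spraying seedlings to run-off (concentrations in ppm; acetone/water, 250 ppm PEG400), Septoria tritici spores applied. Scored after 48 h humid incubation at 24 °C plus 17 days at 20 °C, as percent disease control versus untreated controls (100 = full control).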

[1] = tested on: Puccinia recondita f. sp. tritici; experiment: Test B: wheat leaf rust, preventive spray on wheat seedlings
Summary of the method: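 Preventive test: compound in acetone/water 50/50 with 250 ppm PEG400 was sprayed onto wheat seedlings one day before inoculation with leaf rust spores. After 24 h in saturated air and 7 days in a growth chamber, both at 20 °C, disease control was scored from 0 to 100 against controls.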

[2] = tested on: Blumeria graminis f. sp. tritici; experiment: Test C: wheat powdery mildew, preventive spray on wheat seedlings
Summary of the method: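 Preventive test: inoculation with spore dust came one day after spraying seedlings to run-off with ppm suspensions in acetone/water (50/50) plus 250 ppm PEG400 surfactant. Visual ratings after 8 days' incubation at 20° C give percent disease control relative to controls.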

Phakopsora pachyrhizi = experiment: Test D: Asian soybean rust, preventive spray on soybean seedlings
Summary of the method: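 Compounds in acetone/water (50/50) with 250 ppm PEG400, dosed in ppm, sprayed to run-off on soybean seedlings; inoculated with P. pachyrhizi spores next day. Held 24 h at 22 °C in saturated air, then 8 days at 22 °C; visual rating of disease control, 0–100, relative to untreated controls.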

Botrytis cinerea = experiment: Test E: tomato Botrytis, preventive spray on tomato seedlings
Summary of the method: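 Preventive test: seedlings sprayed to run-off with compound in acetone/water (50/50) plus 250 ppm PEG400, inoculated one day later with B. cinerea spores. Held 48 h saturated at 20° C, then 3 days at 24° C; disease control scored visually from 0 to 100 versus controls.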

Alternaria solani = experiment: Test F: tomato early blight, preventive spray on tomato seedlings
Summary of the method: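 Preventive test: one day after the compound spray, seedlings were inoculated with A. solani, incubated saturated at 27 °C for 48 h, then kept at 20 °C for 3 days. Test suspensions contained acetone/water 50/50 with 250 ppm PEG400 surfactant. Visual ratings run from 0 (no control) to 100 (full control).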

SMILES	Test A disease control rating (Septoria tritici) [%]	Test B disease control rating [1] [%]	Test C disease control rating [2] [%]	Test D disease control rating (Phakopsora pachyrhizi) [%]	Test E disease control rating (Botrytis cinerea) [%]	Test F disease control rating (Alternaria solani) [%]
Cc1nn(C)c(Nc2ccc(Cl)cc2[N+](=O)[O-])c1-c1c(F)cccc1Cl [compound 22]	100	93	97	0	99	64
Cc1nn(C)c(Nc2ccc(OCC(F)F)cc2[N+](=O)[O-])c1-c1ccc(F)cc1Cl [compound 36]	100	89	56	25	100	0
Cc1nn(C)c(Nc2ccc(OC(C)C)cc2[N+](=O)[O-])c1-c1ccc(F)cc1Cl [compound 104]	60	0	72	0	0	0
Cc1nn(C)c(Nc2cc(F)ccc2[N+](=O)[O-])c1-c1ccc(F)cc1Cl [compound 30]	100	86	91	0	67	0
COc1ccc(-c2c(C)nn(C)c2Nc2c(F)cccc2[N+](=O)[O-])c(C)c1 [compound 48]	100	95	89	0	97	97
COc1ccc(-c2c(C)nn(C)c2Nc2c(F)cccc2[N+](=O)[O-])c(Cl)c1 [compound 27]	100	100	91	87	100	99
COc1ccc(-c2c(C)nn(C)c2Nc2c(F)cc(OC)cc2[N+](=O)[O-])c(Cl)c1 [compound 186]	100	100	99	94	100	100
COc1ccc(Nc2c(-c3c(F)cccc3Cl)c(C)nn2C)c([N+](=O)[O-])c1 [compound 197]	100	99	93	0	98	98
Cc1nn(C)c(Nc2c(Cl)cc(F)cc2[N+](=O)[O-])c1-c1c(F)cccc1F [compound 76]	100	99	95	25	87	0
COc1ccc(-c2c(C)nn(C)c2Nc2c(Cl)cc(C)cc2[N+](=O)[O-])c(Cl)c1 [compound 66]	100	100	98	97	98	96
COc1cc(F)c(-c2c(C)nn(C)c2Nc2c(F)cc(F)cc2[N+](=O)[O-])c(F)c1 [compound 84]	100	100	99	48	90	99
Cc1nn(C)c(Nc2c(F)cccc2[N+](=O)[O-])c1-c1c(F)cccc1Cl [compound 25]	100	100	99	98	100	98
Cc1nn(C)c(Nc2c(F)cc(I)cc2[N+](=O)[O-])c1-c1ccc(F)cc1Cl [compound 47]	100	97	89	92	95	96
COc1ccc(-c2c(C)nn(C)c2Nc2c(F)cc(F)cc2[N+](=O)[O-])c(Cl)c1 [compound 64]	100	100	98	97	98	99
Cc1cc(Cl)cc([N+](=O)[O-])c1Nc1c(-c2ccc(F)cc2Cl)c(C)nn1C [compound 33]	100	100	99	92	99	85
COc1cc(F)c(Nc2c(-c3ccc(F)cc3Cl)c(C)nn2C)c([N+](=O)[O-])c1 [compound 85]	100	100	97	96	94	98
COc1cc(F)c(-c2c(C)nn(C)c2Nc2c(F)cc(Cl)cc2[N+](=O)[O-])c(F)c1 [compound 86]	100	100	98	77	96	99
Cc1nn(C)c(Nc2c(Cl)cc(Cl)cc2[N+](=O)[O-])c1-c1ccc(F)cc1F [compound 101]	100	99	89	44	99	0
Cc1nn(C)c(Nc2c(Cl)cc(Cl)cc2[N+](=O)[O-])c1-c1ccc(C#N)cc1Cl [compound 116]	99	99	56	0	63	82
Cc1ccc(Nc2c(-c3c(F)cccc3F)c(C)nn2C)c([N+](=O)[O-])c1 [compound 105]	99	74	86	0	73	0
Cc1nn(C)c(Nc2c(F)cc(Cl)cc2[N+](=O)[O-])c1-c1c(F)cccc1F [compound 98]	100	97	93	0	99	98
